What is called inhibition is the percentage by which the read-out fell short of the control.

Experimental findings from patent US8648215B2, “Spiroenone and uses thereof” (Joben Bio-Medical Co., Ltd., priority 2012, dated 2014) are described below.

For this experiment, the system named is MCF-7 cells. As to the kind of experiment: MTT assay for antiproliferation, MCF-7 cells. It counts as cell-based. Conditions: Homo sapiens, MCF7, 24 h, read-out: percentage of inhibition. The protocol:
Cell Lines and Culture. MCF-7, T-47D, and H184B5F5/M10 cells were cultured with 5% CO2 atmosphere at 37° C.; MDA-MB-231 cells were cultured without CO2 at 37° C. The MCF-7 cells were cultured in MEM containing 10% heat-inactivated FBS, 100 units/mL penicillin, 100 μg/mL streptomycin, and 1 mM sodium pyruvate. The T-47D cells were maintained in RPMI-1640 medium containing 10% heat inactivated FBS, 100 units/mL penicillin, and 100 μg/mL streptomycin. […]
Assay for Antiproliferation. To determine the antiproliferative effect, MCF-7, T-47D, MDA-MB-231, or H184B5F5/M10 cells were assessed using the MTT assay as previously reported (Ho, C. Y.; Kim, C. F.; Leung, K. N.; Fung, K. P.; Tse, T. F.; Chan, H.; Lau, C. B. Differential anti-tumor activity of Coriolus versicolor (Yunzhi) extract through p53- and/or Bcl-2-dependent apoptotic pathway in human breast cancer cells. Cancer Biol. Ther. 2005, 4, e11-e17). […] The absorbance at 570 nm was measured, and the viability of cells was calculated using the following equation: relative cell number (%)=(average absorbance of treated wells)×100/(average absorbance of blank vehicle wells).

On to `COC1=C(C)CC2(CC1)C(C)=CC(=O)C=C2C` [compound 3, coixspiroenone], for which the inhibition at 50 µM is 19.2%.
